In ChEMBL document CHEMBL1201862, “PubChem BioAssay data set” (2004):
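Protocol summary: plate cells (96-well), add compound at 5 concentrations, incubate 48 h, interpolate endpoints linearly. Here, GI50 denotes the concentration required for 50% inhibition of growth.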 The source made the active and inactive calls. No stated cut-off is given here; in the data, active = GI50 up to about 1.1 µM and inactive = higher.

Experiments:
Assay in all cases: DTP human tumour cell line panel, 48 h
MDA-MB-435 = system: MDA-MB-435
Hs-578T = system: Hs-578T
MOLT-4 = system: MOLT-4
NCI-H23 = system: NCI-H23
SF-539 = system: SF-539
NCI-H226 = system: NCI-H226
HT-29 = system: HT-29
CCRF-CEM = system: CCRF-CEM
TK-10 = system: TK-10
NCI/ADR-RES = system: NCI/ADR-RES
SK-MEL-5 = system: SK-MEL-5
RPMI-8226 = system: RPMI-8226
SR = system: SR
A498 = system: A498
ACHN = system: ACHN
U-251 = system: U-251
SK-OV-3 = system: SK-OV-3
786-0 = system: 786-0
HOP-92 = system: HOP-92
SF-268 = system: SF-268

SMILES	GI50 (MDA-MB-435)	GI50 (Hs-578T)	GI50 (MOLT-4)	GI50 (NCI-H23)	GI50 (SF-539)	GI50 (NCI-H226)	GI50 (HT-29)	GI50 (CCRF-CEM)	GI50 (TK-10)	GI50 (NCI/ADR-RES)	GI50 (SK-MEL-5)	GI50 (RPMI-8226)	GI50 (SR)	GI50 (A498)	GI50 (ACHN)	GI50 (U-251)	GI50 (SK-OV-3)	GI50 (786-0)	GI50 (HOP-92)	GI50 (SF-268)
CC(=O)NC1=C(OS(=O)(=O)c2ccc(C)cc2)CN(C)C1=O	4.26 µM (inactive)	4.03 µM (inactive)	3.25 µM (inactive)	3.72 µM (inactive)	2.06 µM (inactive)	8.73 µM (inactive)	4.92 µM (inactive)	1.77 µM (inactive)	1.94 µM (inactive)	3.91 µM (inactive)	4.11 µM (inactive)	1.59 µM (inactive)	4.6 µM (inactive)	4.25 µM (inactive)	3.32 µM (inactive)	2.7 µM (inactive)	7.57 µM (inactive)	3.79 µM (inactive)	2.84 µM (inactive)	5.04 µM (inactive)
O=[N+]([O-])/C=C/c1c(Cl)cccc1Cl	1.77 µM (inactive)	9.44 µM (inactive)	1.07 µM (active)	4.46 µM (inactive)	2.37 µM (inactive)	10 µM (inactive)	2.45 µM (inactive)	1.23 µM (inactive)	2.67 µM (inactive)	1.96 µM (inactive)	3.13 µM (inactive)	0.838 µM (active)	0.933 µM (active)	16.4 µM (inactive)	2.48 µM (inactive)	2.61 µM (inactive)	20.8 µM (inactive)	0.809 µM (active)	4.9 µM (inactive)	4.32 µM (inactive)
C=C1c2nc3ccccc3n2C=C(c2ccc(OC)cc2)N1c1ccc(OCCN2CCCCC2)cc1	8.69 µM (inactive)	11.2 µM (inactive)	2.58 µM (inactive)	6.32 µM (inactive)	20.2 µM (inactive)	28.2 µM (inactive)	20 µM (inactive)	2.79 µM (inactive)	14.8 µM (inactive)	4.73 µM (inactive)	7.45 µM (inactive)	2.9 µM (inactive)	4.44 µM (inactive)	35.7 µM (inactive)	8.24 µM (inactive)	7.59 µM (inactive)	49.1 µM (inactive)	14.2 µM (inactive)	28.1 µM (inactive)	> 30.4 µM (inactive)
CC(C)NC(=O)OCc1c(COC(=O)NC(C)C)n(C)c2c1ccc1sccc12	13.2 µM (inactive)	13.6 µM (inactive)	10.3 µM (inactive)	7.4 µM (inactive)	12.4 µM (inactive)	2.67 µM (inactive)	24.2 µM (inactive)	10.2 µM (inactive)	18.6 µM (inactive)	> 25.4 µM (inactive)	9.29 µM (inactive)	9.73 µM (inactive)	4.19 µM (inactive)	16.3 µM (inactive)	7 µM (inactive)	20.7 µM (inactive)	24.9 µM (inactive)	6.35 µM (inactive)	4.9 µM (inactive)	6.18 µM (inactive)
CCOC(=O)c1cc2c([nH]1)c(O)cc1c2ccn1Cc1ccccc1	16.9 µM (inactive)	19.4 µM (inactive)	1.91 µM (inactive)	13.7 µM (inactive)	19.4 µM (inactive)	15.1 µM (inactive)	16.6 µM (inactive)	10.8 µM (inactive)		17.3 µM (inactive)	12.1 µM (inactive)	8.41 µM (inactive)	1.03 µM (active)	29.8 µM (inactive)		16.7 µM (inactive)	20.7 µM (inactive)	18.1 µM (inactive)	13.5 µM (inactive)	19.5 µM (inactive)
Cc1ccc(NC=O)c(-c2c(N)[nH]c(=S)[nH]c2=O)c1	94 µM (inactive)	> 100 µM (inactive)	> 100 µM (inactive)	> 100 µM (inactive)	> 100 µM (inactive)	> 100 µM (inactive)	> 100 µM (inactive)	> 100 µM (inactive)	> 100 µM (inactive)	> 100 µM (inactive)	> 100 µM (inactive)	> 100 µM (inactive)	> 100 µM (inactive)	> 100 µM (inactive)	60.7 µM (inactive)		12.3 µM (inactive)	> 100 µM (inactive)	> 100 µM (inactive)	> 100 µM (inactive)
CC(=O)NCCC1CN(C(=O)/C=C\C#C[Si](C)(C)C)c2ccccc21 (stereo unspecified)	21.2 µM (inactive)	33 µM (inactive)	17.3 µM (inactive)	11.9 µM (inactive)	20.3 µM (inactive)	14.9 µM (inactive)	20.3 µM (inactive)	11.8 µM (inactive)	23 µM (inactive)	22.1 µM (inactive)	6.35 µM (inactive)	10.5 µM (inactive)	> 10 µM (inactive)	45.3 µM (inactive)	26.6 µM (inactive)	> 10 µM (inactive)	25.3 µM (inactive)		41.1 µM (inactive)	48.2 µM (inactive)
